Here are results for one molecule from ChEMBL document CHEMBL5528046, “Discovery of Novel PROTAC Degraders of p300/CBP as Potential Therapeutics for Hepatocellular Carcinoma” (J Med Chem, 2024).

Assay [1] concerns the target T1, Protein cereblon/Histone acetyltransferase p300 (Homo sapiens, UniProt Q09472+Q96SW2). Briefly: PROTAC activity at CRBN/p300 in human SK-HEP1 cells assessed as increase in protein ubiquitination at 2 uM incubated for 24 hrs by immunoblotting analysis (reference value: 100%). The assay is classed as cell-based.
Target sequence in this assay (Q09472 2-2414 limits assumed): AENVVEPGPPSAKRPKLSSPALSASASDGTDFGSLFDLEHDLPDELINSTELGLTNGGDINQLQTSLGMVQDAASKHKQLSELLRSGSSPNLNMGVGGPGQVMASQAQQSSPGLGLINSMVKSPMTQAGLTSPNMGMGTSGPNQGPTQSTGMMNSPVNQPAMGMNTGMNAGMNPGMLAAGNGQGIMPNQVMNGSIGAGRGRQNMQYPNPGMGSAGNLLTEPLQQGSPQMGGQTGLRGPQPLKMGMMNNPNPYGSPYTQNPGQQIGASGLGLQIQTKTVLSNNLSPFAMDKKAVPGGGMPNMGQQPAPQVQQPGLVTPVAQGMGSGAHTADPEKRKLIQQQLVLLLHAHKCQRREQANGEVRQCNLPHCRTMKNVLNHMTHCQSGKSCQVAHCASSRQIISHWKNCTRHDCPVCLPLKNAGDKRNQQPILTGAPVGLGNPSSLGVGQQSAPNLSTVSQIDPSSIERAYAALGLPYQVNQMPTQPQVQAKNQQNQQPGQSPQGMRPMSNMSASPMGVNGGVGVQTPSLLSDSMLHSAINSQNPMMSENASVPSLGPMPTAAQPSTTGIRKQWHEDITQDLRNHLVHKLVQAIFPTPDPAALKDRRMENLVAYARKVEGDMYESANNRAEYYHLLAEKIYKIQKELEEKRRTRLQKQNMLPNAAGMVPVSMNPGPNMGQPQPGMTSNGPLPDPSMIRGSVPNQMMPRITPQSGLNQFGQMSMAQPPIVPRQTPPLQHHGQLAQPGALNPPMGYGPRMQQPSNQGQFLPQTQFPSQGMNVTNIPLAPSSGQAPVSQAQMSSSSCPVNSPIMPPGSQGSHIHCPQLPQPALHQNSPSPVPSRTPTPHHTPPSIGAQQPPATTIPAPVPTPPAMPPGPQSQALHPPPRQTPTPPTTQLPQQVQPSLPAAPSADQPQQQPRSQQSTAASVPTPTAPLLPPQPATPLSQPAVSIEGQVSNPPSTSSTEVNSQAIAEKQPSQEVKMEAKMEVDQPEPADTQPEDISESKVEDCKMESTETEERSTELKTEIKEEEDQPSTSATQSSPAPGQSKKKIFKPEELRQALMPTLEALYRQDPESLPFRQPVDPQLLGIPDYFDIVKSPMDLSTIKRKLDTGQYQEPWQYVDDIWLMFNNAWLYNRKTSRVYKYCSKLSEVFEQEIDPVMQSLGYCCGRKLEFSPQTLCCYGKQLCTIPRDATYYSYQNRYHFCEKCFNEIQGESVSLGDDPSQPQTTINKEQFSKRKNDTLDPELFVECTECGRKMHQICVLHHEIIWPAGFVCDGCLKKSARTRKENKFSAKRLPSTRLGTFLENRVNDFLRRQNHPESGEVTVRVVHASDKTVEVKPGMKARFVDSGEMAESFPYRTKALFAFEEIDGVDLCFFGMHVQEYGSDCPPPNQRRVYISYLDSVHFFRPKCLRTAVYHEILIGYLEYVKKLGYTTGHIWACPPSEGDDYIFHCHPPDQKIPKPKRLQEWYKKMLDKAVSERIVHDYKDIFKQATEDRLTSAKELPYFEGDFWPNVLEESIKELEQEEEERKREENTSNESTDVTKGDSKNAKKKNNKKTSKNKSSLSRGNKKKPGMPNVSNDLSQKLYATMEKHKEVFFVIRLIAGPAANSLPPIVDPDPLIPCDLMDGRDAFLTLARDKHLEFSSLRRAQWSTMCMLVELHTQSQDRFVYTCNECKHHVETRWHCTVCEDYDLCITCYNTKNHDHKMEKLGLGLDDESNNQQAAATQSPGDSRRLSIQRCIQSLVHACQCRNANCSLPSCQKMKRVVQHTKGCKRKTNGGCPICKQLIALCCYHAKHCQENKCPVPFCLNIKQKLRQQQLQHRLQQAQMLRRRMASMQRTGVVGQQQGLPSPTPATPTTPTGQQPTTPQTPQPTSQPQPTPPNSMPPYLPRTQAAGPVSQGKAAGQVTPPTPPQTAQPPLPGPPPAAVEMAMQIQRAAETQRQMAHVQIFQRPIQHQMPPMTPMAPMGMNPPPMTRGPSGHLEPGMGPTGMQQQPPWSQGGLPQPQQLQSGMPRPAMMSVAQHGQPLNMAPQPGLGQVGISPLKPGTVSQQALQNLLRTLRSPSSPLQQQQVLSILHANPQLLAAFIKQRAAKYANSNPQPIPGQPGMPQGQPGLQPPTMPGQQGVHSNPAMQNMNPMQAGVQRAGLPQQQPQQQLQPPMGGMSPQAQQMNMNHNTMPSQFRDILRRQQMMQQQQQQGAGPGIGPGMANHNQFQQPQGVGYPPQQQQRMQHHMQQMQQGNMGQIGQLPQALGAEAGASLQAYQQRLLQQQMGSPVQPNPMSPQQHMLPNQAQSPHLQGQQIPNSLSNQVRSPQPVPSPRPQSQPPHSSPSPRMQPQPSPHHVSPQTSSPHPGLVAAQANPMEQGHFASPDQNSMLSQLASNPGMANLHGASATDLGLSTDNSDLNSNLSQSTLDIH
Target sequence in this assay (Q96SW2 whole entry partner): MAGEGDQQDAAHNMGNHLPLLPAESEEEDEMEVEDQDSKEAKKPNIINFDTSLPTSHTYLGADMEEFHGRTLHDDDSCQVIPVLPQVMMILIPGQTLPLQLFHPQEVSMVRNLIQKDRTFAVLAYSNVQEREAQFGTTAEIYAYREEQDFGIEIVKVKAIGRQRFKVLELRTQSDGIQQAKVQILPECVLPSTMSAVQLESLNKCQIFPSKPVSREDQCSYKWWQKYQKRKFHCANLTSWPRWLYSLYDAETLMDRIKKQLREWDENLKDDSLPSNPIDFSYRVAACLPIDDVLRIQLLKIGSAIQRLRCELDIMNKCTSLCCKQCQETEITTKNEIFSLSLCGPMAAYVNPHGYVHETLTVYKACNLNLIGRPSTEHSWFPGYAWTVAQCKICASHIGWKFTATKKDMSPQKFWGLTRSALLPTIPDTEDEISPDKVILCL
Assay [2] addresses T1, Protein cereblon/Histone acetyltransferase p300. Briefly: PROTAC activity at CRBN/p300 in human SK-HEP1 cells with siRNA mediated CRBN knockdown assessed as induction of p300 degradation by measuring residual activity at 1 uM by immunoblotting analysis relative to control. The assay is classed as cell-based.
Target sequence in this assay (Q09472 2-2414 limits assumed): as the sequence (Q09472 2-2414 limits assumed) above
Target sequence in this assay (Q96SW2 whole entry partner): as the sequence (Q96SW2 whole entry partner) above
Assay [3] shares this target. Briefly: PROTAC activity at CRBN/p300 in human SK-HEP1 cells assessed as induction of p300 protein degradation at 0.1 uM incubated for 24 hrs relative to control. In kind it is cell-based.
Target sequence in this assay (Q09472 2-2414 limits assumed): as the sequence (Q09472 2-2414 limits assumed) above
Target sequence in this assay (Q96SW2 whole entry partner): as the sequence (Q96SW2 whole entry partner) above
The target of assay [4] is T2, Protein cereblon/CREB-binding protein (Homo sapiens) (UniProt Q92793+Q96SW2). Briefly: PROTAC activity at CRBN/CBP in human SK-HEP1 cells assessed as induction of […] protein degradation by measuring residual activity at 1 uM incubated for 24 hrs by immunoblotting analysis (reference value: 100%). The assay is classed as cell-based.
The test system of assay [5] is SK-HEP1. Briefly: Antiproliferative activity against human SK-HEP1 cells assessed as inhibition of cell growth incubated for 5 days by CCK-8 assay. The following applies: SK-HEP1, 120 h. The assay is classed as functional, cell-based.
Assay [6] deals with SK-HEP1. Briefly: Induction of cell cycle arrest at G2/M phase in human SK-HEP1 cells assessed as SKP2 protein level at 1 uM incubated for 24 hrs by immunoblotting analysis (reference value: 100%). The assay is classed as functional.
The subject of assay [7] is SK-HEP1. Briefly: Inhibition of colony formation in human SK-HEP1 cells at 1 uM incubated for 14 days with compound containing media replacement for every 3 days by crystal violet staining based assay relative to control. The assay is classed as functional. The conditions noted are these: SK-HEP1, 336 h, time 14 day.
Assay [8] addresses T1, Protein cereblon/Histone acetyltransferase p300. Briefly: PROTAC activity at CRBN/p300 in human SK-HEP1 cells assessed as induction of p300 protein degradation at 1 uM incubated for 24 hrs relative to control. The assay is classed as cell-based.
Target sequence in this assay (Q09472 2-2414 limits assumed): as the sequence (Q09472 2-2414 limits assumed) above
Target sequence in this assay (Q96SW2 whole entry partner): as the sequence (Q96SW2 whole entry partner) above
Assay [9] shares this target. Briefly: PROTAC activity at CRBN/p300 in human SK-HEP1 cells assessed as induction of p300 degradation by measuring residual activity at 0.5 uM pretreated with MLN4924 at 0.1 uM followed by compound addition by immunoblotting analysis relative to control. In kind it is cell-based.
Target sequence in this assay (Q09472 2-2414 limits assumed): as the sequence (Q09472 2-2414 limits assumed) above
Target sequence in this assay (Q96SW2 whole entry partner): as the sequence (Q96SW2 whole entry partner) above
For assay [10], the target named is T2, Protein cereblon/CREB-binding protein (Homo sapiens). Briefly: PROTAC activity at CRBN/CBP in human SK-HEP1 cells assessed as induction of […] protein degradation by measuring residual activity at 2 uM incubated for 24 hrs by immunoblotting analysis (reference value: 100%). The assay is classed as cell-based.
Assay [11] concerns the target T1, Protein cereblon/Histone acetyltransferase p300. Briefly: PROTAC activity at CRBN/p300 in human SK-HEP1 cells assessed as induction of p300 protein degradation incubated for 24 hrs by immunoblotting analysis. In kind it is cell-based.
In assay [12] the test system is SK-HEP1. Briefly: Induction of cell cycle arrest at G2/M phase in human SK-HEP1 cells assessed as SKP2 protein level at 2 uM incubated for 24 hrs by immunoblotting analysis (reference value: 100%). In kind it is functional.

Some results are limits rather than exact numbers.

Turning to `Cc1noc(C)c1-c1ccc2c(c1)nc([C@@H]1CCCC(=O)N1c1ccc(F)c(F)c1)n2C1CCN(C2CN(c3ccc4c(c3)C(=O)N(C3CCC(=O)NC3=O)C4=O)C2)CC1` (stereo partly drawn), the Activity in [1] was 125%; in [2], 78%; in assay [3], 27%; in assay [4], 92%; in [6], 88%; in [8] it was 47%. Moreover, the Activity in [9] is 115%; in assay [10], 89%; in assay [11], “Dose-Dependent Effect”; in assay [12], 60%. For the same molecule, the IC50 in assay [5] was 733 nM. Moreover, in assay [7], the inhibition at 1 µM is > 70%. In addition, the half-maximal degradation concentration (DC50) in assay [11] turned out to be 93 nM.
